One data set concerns the target T1, m-calpain (Homo sapiens, UniProt P17655).
T1 construct: endogenous in cells; host or cells: Caco 2A
The data set can be described thus: ionomycin activated m-calpain activity in Caco 2A cells. The data set is classed as cell-based. Conditions: 0, 5, 10, 20, and 120 μM, FIG. 3. Here is the method: (The Caco 2a calls were treated and analyzed as in Example 4).

The next data set concerns Surface her2. As to the kind of experiment: surface her2 in breast cancer lines under ritonavir. Type of data set: cell-based, human. Conditions: SKBR-3, ritonavir treatment.
The next data set relates to H23. The data set can be described thus: MTT assay, NSCLC cell line. The data set is classed as cell-based. As to conditions: Homo sapiens, NCI-H23. (Tetrazolium assays rely on reduction of a dye to a coloured formazan, in cell work by metabolically active cells.)
Data set [1] has as its system MDA-MB-435 human breast cancer xenografts. As to the kind of experiment: nude mouse mammary fat pad xenograft model. The data set is classed as in vivo, nude mice. Conditions: 19 days. Here is the method: An inoculum of 5×10^5 MDA-MB-435 cells in 100 μl was injected into the mammary fat pad of each female animal. […] The tumor growth rate was reduced by 16% in the mice treated at 20 mg/kg, compared to the mice treated with vehicle.

Another data set relates to HUVEC. As to the kind of experiment: HUVEC tubule formation assay. Conditions: Homo sapiens, 72 h, fibrin gel, VEGF and bFGF, counted at three days, read-out: IC50, formation of new endothelial cell tubules. Type of data set: cell-based. Here is the method:
Endothelial cell tubule formation in a fibrin clot is an analog of angiogenesis and was used to assay angiogenesis inhibitors (Brown et al., Lab. Investig. 75:539, 1996). HUVEC were coated on Cytodex™ microcarrier beads (Pharmacia) at a density of 30 HUVEC per bead, in a siliconized dish containing HUVEC complete medium, for 24 hours. […] Tubules were counted at three days.

In a further data set the test system is T47D. As to the kind of experiment: MTT assay, breast cancer line. Type of data set: cell-based. As to conditions: Homo sapiens, read-out: Ritonavir IC50. Here is the method:
(§1) The drugs were tested together at the ratio of their IC50 as single agents, over a 4-log range of concentrations. […] Viable cell number was measured by MTT assay.

The next data set has as its system MDA-231. As to the kind of experiment: MTT assay, breast cancer line. The data set is classed as cell-based. As to conditions: Homo sapiens. Here is the method:
as §1

In data set [2] the test system is MCF7. As to the kind of experiment: MTT assay, breast cancer line. The data set is classed as cell-based. Conditions: Homo sapiens, MCF7, read-out: Ritonavir IC50. Here is the method:
as §1

For data set [3] the following is noted: patients, Gatti et al., cited from earlier work.
Another data set relates to A549. As to the kind of experiment: MTT assay, NSCLC cell line. Conditions: Homo sapiens. The data set is classed as cell-based.
For a further data set, the system named is MDA-MB-231 (231). As to the kind of experiment: clonogenic assay (LD50), ritonavir sensitivity. Type of data set: cell-based, human. Conditions: 231 cells. The text has this:
(§2) MCF7 and MDA-MB-435 (435) had relatively low m-calpain levels, whereas MDA-MB-231 (231), MDA-MB-436 (436) and Caco 2 had relatively high m-calpain levels.
(§3) We note that the IC50 is derived from MTT assays, while the LD50 is derived from clonogenic assays.

A further data set has as its system MDA-MB-435 (435). As to the kind of experiment: clonogenic assay (LD50), ritonavir sensitivity. Type of data set: cell-based, human. As to conditions: 435 cells.
Source text: as §2, §3

Data set [4] relates to MCF7. As to the kind of experiment: clonogenic assay (LD50), ritonavir sensitivity. The data set is classed as cell-based, human.
Source text: as §2, §3

In a further data set the test system is MDA-MB-436 (436). The data set can be described thus: clonogenic assay (LD50), ritonavir sensitivity. The data set is classed as cell-based, human. Conditions: 436 cells.
Source text: as §2, §3

The values that follow come from patent US20070009593A1, “Methods of treating cancer” (Indianan University Advanced Research, priority 2002, published 2007).

Like-named read-outs stand apart in the source and are kept apart here.

T1 sequence (P17655 20-700 limits assumed): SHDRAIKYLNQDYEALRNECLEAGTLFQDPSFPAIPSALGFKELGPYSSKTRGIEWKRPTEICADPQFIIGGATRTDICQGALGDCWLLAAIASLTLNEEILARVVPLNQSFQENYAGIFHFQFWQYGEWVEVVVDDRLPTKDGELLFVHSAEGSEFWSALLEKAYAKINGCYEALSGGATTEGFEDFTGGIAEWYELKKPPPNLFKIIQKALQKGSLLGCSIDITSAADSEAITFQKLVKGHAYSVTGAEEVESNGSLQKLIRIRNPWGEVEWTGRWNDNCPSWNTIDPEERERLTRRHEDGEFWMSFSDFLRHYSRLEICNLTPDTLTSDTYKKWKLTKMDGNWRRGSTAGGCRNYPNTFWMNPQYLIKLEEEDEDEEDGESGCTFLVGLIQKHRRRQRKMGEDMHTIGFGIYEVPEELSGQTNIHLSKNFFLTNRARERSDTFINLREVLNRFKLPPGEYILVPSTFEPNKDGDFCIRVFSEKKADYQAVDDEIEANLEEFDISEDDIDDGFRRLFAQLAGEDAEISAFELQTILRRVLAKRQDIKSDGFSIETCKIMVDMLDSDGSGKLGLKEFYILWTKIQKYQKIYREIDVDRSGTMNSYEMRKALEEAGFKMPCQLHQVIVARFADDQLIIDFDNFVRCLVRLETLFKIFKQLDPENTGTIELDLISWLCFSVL
T1 sequence (P04632 whole entry partner): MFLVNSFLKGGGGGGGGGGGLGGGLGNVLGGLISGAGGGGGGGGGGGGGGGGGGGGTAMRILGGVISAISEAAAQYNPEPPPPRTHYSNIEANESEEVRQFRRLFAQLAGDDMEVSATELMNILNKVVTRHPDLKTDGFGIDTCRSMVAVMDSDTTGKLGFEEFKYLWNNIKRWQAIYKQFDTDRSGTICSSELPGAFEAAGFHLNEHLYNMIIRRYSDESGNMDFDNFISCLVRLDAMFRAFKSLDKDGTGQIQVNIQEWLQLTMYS

For the compound `CC(C)c1nc(CN(C)C(=O)N[C@H](C(=O)N[C@@H](Cc2ccccc2)C[C@H](O)[C@H](Cc2ccccc2)NC(=O)OCc2cncs2)C(C)C)cs1` [Ritonavir, ritonavir], the inomycin activated m-calpain result on m-calpain is reported as “dose dependent decrease”. Further, in the data set on Surface her2, the “Surface her2 Ritonavir” value turned out to be 0.4. The IC50 with H23 came out at 44 µM; in the data set on HUVEC, 16 µM; with T47D, 12 µM; in the data set with MDA-231 (MDA-MB-231, read-out: Ritonavir IC50, MDA-231) it was 50 µM; in the data set on MDA-231 (MDA-MB-231, MDA-231, 48 hours, MTT, single agent, read-out: IC50), 60 µM; in the data set on MCF7 [2], 25 µM. In the data set on A549 (MTT assay), this compound came in with an IC50 of 35 µM. Further, the “tumor growth rate reduced, compared to vehicle” value is 49% in data set [1] (10 mg/kg daily gavage, one outlier tumor removed); 16% in data set [1] (20 mg/kg daily gavage, all tumors); 55% in data set [1] (20 mg/kg daily gavage, outlier tumor removed). In addition, the “peak plasma ritonavir concentrations” value in data set [3] (AIDS 13:2083-2089) was 18.6 to 46 µM. For the same compound, the trough concentrations in data set [3] (AIDS 13:2083-2089) is 10.4 to 17.5 µM. Moreover, the Cmax in [3] (read-out: upper boundary of ritonavir Cmax plasma concentrations) was roughly 45 µM. Further, the IC80 in the data set on A549 (A549, MTT assay, single agent) was 45 µM. For the same compound, the LD50 turned out to be 60 μm with MDA-MB-231 (231), 16 µM with MDA-MB-435 (435), 25 µM in the data set on MCF7 [4] and 55 µM in the data set with MDA-MB-436 (436).

As a reminder, the IC50 is the point on the concentration scale where inhibition reaches its midpoint. A word on the IC80: it is the point of the concentration-response curve where the effect stands at 80%. High values mean weaker potency, low ones greater potency.
